{"source": "paper PMC3115942", "about": "(PLoS ONE, 2011)", "key": {"[1]": {"tested_on": "Hh pathway in Shh-L2 cells", "test": "Hh reporter assay in Shh-L2 cells", "format": "cell-based, mouse", "description": "Shh-L2 cells were used as a Hh reporter cell line as described previously. Hh signaling was induced by Shh conditioned medium, 200 nM SAG (AH-Diagnostics) and ActOXS (a combination of 5 µM Hydroxycholesterol 20-alfa and 5 µM Hydroxycholesterol 22S (Sigma-Aldrich)). For Shh conditioned medium, Shh-PANC-1 cells were grown to confluence and switched to fresh medium. Shh conditioned medium was harvested after 48 hours, and was diluted to 50% in fresh DMEM before use. The clonal Shh-PANC-1 cell line was generated by stably transducing PANC-1 cells with virus containing medium from HEK293T cells that were transfected using a Virapower Lentiviral expression kit (Invitrogen). The vector was produced by removing GFP from a pLenti 6.2-vector, and inserting the mouse Shh cDNA sequence.\nThe calculations were performed with an online calculator using the formula: a exp (−bx) + c at the website; http://www.changbioscience.com/stat/ec50.html"}, "Pim-1(h)": {"target": "T1, Pim-1(h) (Homo sapiens, UniProt P11309)", "T1 construct": "purchased Millipore (Upstate) KinaseProfiler", "T1 sequence (P11309 whole entry)": "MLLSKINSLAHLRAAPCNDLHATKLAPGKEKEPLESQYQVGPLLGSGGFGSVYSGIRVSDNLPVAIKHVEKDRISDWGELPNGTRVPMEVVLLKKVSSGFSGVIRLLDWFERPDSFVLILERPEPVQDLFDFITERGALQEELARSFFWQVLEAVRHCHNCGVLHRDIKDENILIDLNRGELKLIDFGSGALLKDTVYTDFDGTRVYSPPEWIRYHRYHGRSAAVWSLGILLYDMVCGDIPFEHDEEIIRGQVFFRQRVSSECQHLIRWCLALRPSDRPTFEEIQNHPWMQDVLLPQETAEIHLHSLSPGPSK", "test": "Millipore kinaseprofiler diversity array", "format": "biochemical", "conditions": "10 µM MS-0022", "description": "(§1) Table 4 Kinase activity in presence of 10 µM MS-0022 in a kinaseprofiler diversity array. | column: Activity %"}, "PKA(h)": {"target": "T2, PKA(h) (Homo sapiens, UniProt P17612)", "T2 construct": "purchased Millipore (Upstate) KinaseProfiler", "test": "Millipore kinaseprofiler diversity array", "format": "biochemical", "conditions": "10 µM MS-0022", "description": "as §1"}, "[2]": {"tested_on": "GLI1 mRNA in SUIT-2 cells", "test": "Real time PCR of GLI1 mRNA in SUIT-2", "format": "cell-based, human", "conditions": "48 hrs", "description": "(§2) Cells were lysed for RNA extraction after 48 or 72 hours of treatment. Total RNA from cultured cells or tumor tissue was isolated using the GeneElute miniprep kit (Sigma-Aldritch) following the manufacturer^'s instructions. cDNA was synthesized from the isolated mRNA using the Retroscript kit (Ambion), and real-time PCR was carried out using the SYBR Green PCR master mix (Stratagene) according to the manufacturer^'s instructions with an Mx3000P cycler (Stratagene). The relative concentrations of cDNA present in each sample were calculated by the MxPro software (Stratagene), normalized for GAPDH (mRNA from cells) or GUS (mRNA from tumors). For real time PCR primer sequences see Table 6. For the tumor tissue real time PCR, previously described human and mouse specific primers against GUSB, PTCH1 and GLI1were used."}, "SUIT-2 cells [3]": {"tested_on": "SUIT-2 cells", "test": "Soft agar colony formation assay, SUIT-2", "format": "cell-based, human", "conditions": "14 days", "description": "2000 PANC-1 or SUIT-2 cells were suspended in 1.5 mL growth media containing 0.35% agar (Oxoid), over a 1.5 mL base layer containing 0.5% agar in 6-well plates. The plates were incubated for 14 days (SUIT-2) and 21 days (PANC-1) and then stained for 1 h with 1 ml of 0.02% crystal violet (Sigma-Aldrich), and colonies were counted according to sizes; <0.2 mm (small), 0.2–1 mm (medium) and >1 mm (large). Data represent average numbers with standard deviation bars (n = 3). The experiments have been repeated with similar result."}, "PANC-1 cells": {"tested_on": "PANC-1 cells", "test": "Passage growth assay, PANC-1", "format": "cell-based, human", "conditions": "5 µM, passages of 5–7 days", "description": "(§3) 20,000 cells were seeded per well in 6 well plates (triplicates) with DMSO or 5 µM MS-0022. Treatment medium was changed on day 3–5, and after 5–7 days the cells were trypsinized, re-suspended in medium and counted, before reseeding cells at 20,000/well for a subsequent passage. The average growth of MS-0022 treated cells was calculated as a percentage of the growth of the DMSO control at the end of each passage. Graphs display average of percent growth with standard deviation bars (n = 3)."}, "SUIT-2 cells [4]": {"tested_on": "SUIT-2 cells", "test": "Passage growth assay, SUIT-2", "format": "cell-based, human", "conditions": "5 µM, passage 2 and 3", "description": "as §3"}, "[5]": {"tested_on": "Gli1 or Gli2 (GliBS-Luc, NIH3T3 cells)", "test": "GliBS-Luc reporter in NIH3T3 cells with forced Gli1 or Gli2 expression", "format": "cell-based", "conditions": "10 µM, 48 hours", "description": "(§4) Vectors were obtained from the following: GliBS-Luc reporter (gift from H. Sasaki), pBluescript (pBS) (Stratagene), FL-HA-GLI1 (Gli1) and Gli2-GFP (Gli2) (gifts from R. Toftgård), Super8XTOPFlash, and NFkB-luc (Panomics). 10 ng renilla luciferase (pRL-TK) (Promega) was used as a transfection control. HEK293 and NIH3T3 cells were seeded at 80,000 per well in 48-well plates on day 1, and were co-transfected on day 2 using a total of 0.4 µg plasmid per well mixed at 1∶3 in FUGENE6 according to manufacturer^'s instructions. On day 3, control medium and activating medium (50% L1 conditioned medium, 50% Shh conditioned medium or medium containing 10 ng/mL recombinant rcrTNF-α (R&D Systems)) +/− 10–20 µM MS-0022 were added, using DMSO as a control (the NFkB pathway inhibitor Bay11-7082 was used as a control in the NFkB assay). Samples were analyzed on day 4 or 5 using the Dual Luciferase assay kit according to manufacturer^'s instructions. Graphs display relative or fold reporter activity, and are calculated from a mean ratio of firefly reporter luminescence/pRL-TK luminescence with standard deviation error bars (n = 3). The experiments have been repeated with similar results."}, "GLI1 mRNA in PC-3 cells": {"tested_on": "GLI1 mRNA in PC-3 cells", "test": "Real time PCR of GLI1 mRNA in PC-3", "format": "cell-based, human", "conditions": "48 hrs", "description": "as §2"}, "[6]": {"tested_on": "TNF-α induced NfkB signaling in NIH3T3 cells", "test": "NFkB luciferase reporter assay in NIH3T3", "format": "cell-based", "conditions": "NIH3T3, 10 µM and 20 µM, 24 hours", "description": "as §4"}, "[7]": {"tested_on": "Gli1 protein in Sufu−/− MEF", "test": "Gli1 immunostaining of Sufu−/− MEF", "format": "cell-based, mouse", "conditions": "20 µM, 48 hours"}, "[8]": {"test": "Compound concentration in mouse liver tissue", "format": "in vivo", "conditions": "C57BL, 5 mg/kg, 2 hours after IP administration"}, "[9]": {"tested_on": "Wnt signaling in HEK293 cells", "test": "Wnt luciferase reporter assay (SuperTop-luc) in HEK293", "format": "cell-based", "conditions": "HEK293, 10 and 20 µM, 24 hours", "description": "as §4"}, "[10]": {"tested_on": "GLI1 mRNA in PANC-1 cells", "test": "Real time PCR of GLI1 mRNA in PANC-1", "format": "cell-based, human", "conditions": "5 µM, 48 hrs", "description": "as §2"}}, "note": "“Also recorded” adds a separate entry of the source."}
{"compound": "Cc1cccn2cc(-c3ccc(NC(=O)c4ccccc4Br)cc3)nc12", "note": "[MS-0022, 2-bromo-N-(4-(8-methylimidazo[1,2-a]pyridin-2-yl)phenyl)benzamide]", "values": [{"measurement": "Hh pathway induction in Shh, SAG and ActOXS induced Shh-L2 cells", "setting": "[1]; 5 µM, 48 hours, Shh, 200 nM SAG, ActOxs (5 µM+5 µM)", "result": "blocked Hh pathway induction"}, {"measurement": "IC50", "setting": "[1]; Mus musculus, pathway inhibition in Shh induced Shh-L2 cells, 48 hours treatment", "result": 0.1, "unit": "µM"}, {"measurement": "activity at 10 µM", "setting": "Pim-1(h)", "result": 103, "unit": "%"}, {"measurement": "activity at 10 µM", "setting": "PKA(h)", "result": 100, "unit": "%"}, {"measurement": "GLI1 mRNA levels, SUIT-2", "setting": "[2]", "result": "reduced GLI1 mRNA levels"}, {"measurement": "soft agar colony formation, SUIT-2", "setting": "SUIT-2 cells [3]", "result": "reduction in large (Figure 2C–D, and G) and medium sized colonies"}, {"measurement": "growth reduction after passage 2, PANC-1", "setting": "PANC-1 cells", "result": 80, "unit": "%"}, {"measurement": "serial passage growth reduction, SUIT-2", "setting": "SUIT-2 cells [4]", "result": "not significant"}, {"measurement": "inhibition of Gli1 or Gli2 when pathway further activated by Shh", "setting": "[5]; 50% Shh conditioned medium", "result": "partial inhibition"}, {"measurement": "Hh pathway inhibitory effect at the level of forced Gli1 or Gli2 expression", "setting": "[5]; without Shh", "result": "not detected"}, {"measurement": "GLI1 mRNA levels, PC-3", "setting": "GLI1 mRNA in PC-3 cells", "result": "reduced GLI1 mRNA levels"}, {"measurement": "TNF-α induced NfkB signaling", "setting": "[6]", "result": "nor did it block; also recorded: slight increase of NFkB signaling"}, {"measurement": "ratio of nuclear versus cytoplasmic Gli1", "setting": "[7]", "result": "did not alter the ratio"}, {"measurement": "total level of Gli1 in the cells", "setting": "[7]", "result": "the total level of Gli1 in the cells was reduced"}, {"measurement": "concentration at 2 h", "setting": "[8]", "result": 244, "unit": "ng/g"}, {"measurement": "L1 medium induced Wnt signaling", "setting": "[9]", "result": "did not significantly block"}, {"measurement": "GLI1 mRNA levels, PANC-1", "setting": "[10]", "result": "without reducing GLI1 mRNA levels"}]}
